Results from US10485235B2, “Aryloxypyrimidinyl ethers as herbicides” (FMC Corporation, priority 2015, dated 2019).

Each compound was assayed on barnyardgrass (Echinochloa crus-galli) (assay: Test B flooded paddy test, barnyardgrass). Conditions: 250 g ai/ha, Flood; visual rating after 13 to 15 days; scale 0 to 100, 0 is no effect, 100 is complete control.
Assay type: in vivo
In short: (§1)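 2-leaf plants; flood to 3 cm, dose into water, hold depth; greenhouse 13–15 d; visual score 0–100 vs controls; dash = not tested.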

Structure (SMILES) | Plant response rating, Barnyardgrass
FC(F)(F)CCCOc1c(Br)cccc1Oc1ncc(Cl)cn1 [Compound 31] | 25

What follows are compounds tested on barnyardgrass (Echinochloa crus-galli) (assay: Test A preemergence, barnyardgrass). Conditions: Preemergence, 31 g ai/ha; 0 to 100 scale (0 no effect, 100 complete control).
Assay type: in vivo
In short: (§2)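 Planted seeds in loam soil mixed with sand; sprayed soil directly (pre). Grew seedlings to one- to two-leaf stage, 2–10 cm; sprayed foliage (post). Held in greenhouse ~10 days. Rated injury visually vs untreated controls, 0–100.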

Structure (SMILES) | Plant response rating, Barnyardgrass
FC(F)(F)CCCOc1c(Br)cccc1Oc1ncc(Cl)cn1 [Compound 31] | 10

Same assay, conditions: Preemergence, 125 g ai/ha; 0 to 100 scale (0 no effect, 100 complete control)

Structure (SMILES) | Plant response rating, Barnyardgrass
FC(F)(F)CCCOc1c(Br)cccc1Oc1ncc(Cl)cn1 [Compound 31] | 60

Each compound was assayed on foxtail, giant (giant foxtail, Setaria faberii) (assay: Test A postemergence, giant foxtail). Conditions: 31 g ai/ha, postemergence; 0 to 100 scale, 0 is no effect, 100 is complete control; approximately 10 days.
Assay type: in vivo
In short: as §2

Structure (SMILES) | Plant response rating, Foxtail, Giant
FC(F)(F)CCCOc1c(Br)cccc1Oc1ncc(Cl)cn1 [Compound 31] | 20

Same assay, conditions: 125 g ai/ha, postemergence; 0 to 100 scale, 0 is no effect, 100 is complete control; approximately 10 days

Structure (SMILES) | Plant response rating, Foxtail, Giant
FC(F)(F)CCCOc1c(Br)cccc1Oc1ncc(Cl)cn1 [Compound 31] | 50

The compounds below were run on ryegrass, Italian (Italian ryegrass, Lolium multiflorum) (assay: Test A preemergence, Italian ryegrass). Conditions: Preemergence, 31 g ai/ha; 0 to 100 scale (0 no effect, 100 complete control).
Assay type: in vivo
In short: as §2

Structure (SMILES) | Plant response rating, Ryegrass, Italian
FC(F)(F)CCCOc1c(Br)cccc1Oc1ncc(Cl)cn1 [Compound 31] | 0

Same assay, conditions: Preemergence, 125 g ai/ha; 0 to 100 scale (0 no effect, 100 complete control)

Structure (SMILES) | Plant response rating, Ryegrass, Italian
FC(F)(F)CCCOc1c(Br)cccc1Oc1ncc(Cl)cn1 [Compound 31] | 40

The compounds below were run on pigweed (Amaranthus retroflexus) (assay: Test A postemergence, pigweed). Conditions: 31 g ai/ha, postemergence; 0 to 100 scale, 0 is no effect, 100 is complete control; approximately 10 days.
Assay type: in vivo
In short: as §2

Structure (SMILES) | Plant response rating, Pigweed
FC(F)(F)CCCOc1c(Br)cccc1Oc1ncc(Cl)cn1 [Compound 31] | 80

Same assay, conditions: 125 g ai/ha, postemergence; 0 to 100 scale, 0 is no effect, 100 is complete control; approximately 10 days

Structure (SMILES) | Plant response rating, Pigweed
FC(F)(F)CCCOc1c(Br)cccc1Oc1ncc(Cl)cn1 [Compound 31] | 100

What follows are compounds tested on ragweed (common ragweed, Ambrosia elatior) (assay: Test A preemergence, ragweed). Conditions: Preemergence, 31 g ai/ha; 0 to 100 scale (0 no effect, 100 complete control).
Assay type: in vivo
In short: as §2

Structure (SMILES) | Plant response rating, Ragweed
FC(F)(F)CCCOc1c(Br)cccc1Oc1ncc(Cl)cn1 [Compound 31] | 0

Same assay, conditions: Preemergence, 125 g ai/ha; 0 to 100 scale (0 no effect, 100 complete control)

Structure (SMILES) | Plant response rating, Ragweed
FC(F)(F)CCCOc1c(Br)cccc1Oc1ncc(Cl)cn1 [Compound 31] | 10

These compounds were tested on ryegrass, Italian (Italian ryegrass, Lolium multiflorum) (assay: Test A postemergence, Italian ryegrass). Conditions: 31 g ai/ha, postemergence; 0 to 100 scale, 0 is no effect, 100 is complete control; approximately 10 days.
Assay type: in vivo
In short: as §2

Structure (SMILES) | Plant response rating, Ryegrass, Italian
FC(F)(F)CCCOc1c(Br)cccc1Oc1ncc(Cl)cn1 [Compound 31] | 10

Same assay, conditions: 125 g ai/ha, postemergence; 0 to 100 scale, 0 is no effect, 100 is complete control; approximately 10 days

Structure (SMILES) | Plant response rating, Ryegrass, Italian
FC(F)(F)CCCOc1c(Br)cccc1Oc1ncc(Cl)cn1 [Compound 31] | 50

These compounds were tested on blackgrass (Alopecurus myosuroides) (assay: Test A postemergence, blackgrass). Conditions: 31 g ai/ha, postemergence; 0 to 100 scale, 0 is no effect, 100 is complete control; approximately 10 days.
Assay type: in vivo
In short: as §2

Structure (SMILES) | Plant response rating, Blackgrass
FC(F)(F)CCCOc1c(Br)cccc1Oc1ncc(Cl)cn1 [Compound 31] | 20

Same assay, conditions: 125 g ai/ha, postemergence; 0 to 100 scale, 0 is no effect, 100 is complete control; approximately 10 days

Structure (SMILES) | Plant response rating, Blackgrass
FC(F)(F)CCCOc1c(Br)cccc1Oc1ncc(Cl)cn1 [Compound 31] | 40

Each compound was assayed on kochia (Kochia scoparia) (assay: Test A preemergence, kochia). Conditions: Preemergence, 31 g ai/ha; 0 to 100 scale (0 no effect, 100 complete control).
Assay type: in vivo
In short: as §2

Structure (SMILES) | Plant response rating, Kochia
FC(F)(F)CCCOc1c(Br)cccc1Oc1ncc(Cl)cn1 [Compound 31] | 0

Same assay, conditions: Preemergence, 125 g ai/ha; 0 to 100 scale (0 no effect, 100 complete control)

Structure (SMILES) | Plant response rating, Kochia
FC(F)(F)CCCOc1c(Br)cccc1Oc1ncc(Cl)cn1 [Compound 31] | 70

What follows are compounds tested on corn (Zea mays) (assay: Test A postemergence, corn). Conditions: 31 g ai/ha, postemergence; 0 to 100 scale, 0 is no effect, 100 is complete control; approximately 10 days.
Assay type: in vivo
In short: as §2

Structure (SMILES) | Plant response rating, Corn
FC(F)(F)CCCOc1c(Br)cccc1Oc1ncc(Cl)cn1 [Compound 31] | 10

Same assay, conditions: 125 g ai/ha, postemergence; 0 to 100 scale, 0 is no effect, 100 is complete control; approximately 10 days

Structure (SMILES) | Plant response rating, Corn
FC(F)(F)CCCOc1c(Br)cccc1Oc1ncc(Cl)cn1 [Compound 31] | 20

Each compound was assayed on sedge, umbrella (small-flower umbrella sedge, Cyperus difformis) (assay: Test B flooded paddy test, umbrella sedge). Conditions: 250 g ai/ha, Flood; visual rating after 13 to 15 days; scale 0 to 100, 0 is no effect, 100 is complete control.
Assay type: in vivo
In short: as §1

Structure (SMILES) | Plant response rating, Sedge, Umbrella
FC(F)(F)CCCOc1c(Br)cccc1Oc1ncc(Cl)cn1 [Compound 31] | 100

Each compound was assayed on ducksalad (Heteranthera limosa) (assay: Test B flooded paddy test, ducksalad). Conditions: 250 g ai/ha, Flood; visual rating after 13 to 15 days; scale 0 to 100, 0 is no effect, 100 is complete control.
Assay type: in vivo
In short: as §1

Structure (SMILES) | Plant response rating, Ducksalad
FC(F)(F)CCCOc1c(Br)cccc1Oc1ncc(Cl)cn1 [Compound 31] | 75

Each compound was assayed on ragweed (common ragweed, Ambrosia elatior) (assay: Test A postemergence, ragweed). Conditions: 31 g ai/ha, postemergence; 0 to 100 scale, 0 is no effect, 100 is complete control; approximately 10 days.
Assay type: in vivo
In short: as §2

Structure (SMILES) | Plant response rating, Ragweed
FC(F)(F)CCCOc1c(Br)cccc1Oc1ncc(Cl)cn1 [Compound 31] | 0

Same assay, conditions: 125 g ai/ha, postemergence; 0 to 100 scale, 0 is no effect, 100 is complete control; approximately 10 days

Structure (SMILES) | Plant response rating, Ragweed
FC(F)(F)CCCOc1c(Br)cccc1Oc1ncc(Cl)cn1 [Compound 31] | 10

The compounds below were run on galium (catchweed bedstraw, Galium aparine) (assay: Test A postemergence, galium). Conditions: 31 g ai/ha, postemergence; 0 to 100 scale, 0 is no effect, 100 is complete control; approximately 10 days.
Assay type: in vivo
In short: as §2

Structure (SMILES) | Plant response rating, Galium
FC(F)(F)CCCOc1c(Br)cccc1Oc1ncc(Cl)cn1 [Compound 31] | 40

Same assay, conditions: 125 g ai/ha, postemergence; 0 to 100 scale, 0 is no effect, 100 is complete control; approximately 10 days

Structure (SMILES) | Plant response rating, Galium
FC(F)(F)CCCOc1c(Br)cccc1Oc1ncc(Cl)cn1 [Compound 31] | 90

What follows are compounds tested on rice (Oryza sativa) (assay: Test B flooded paddy test, rice). Conditions: 250 g ai/ha, Flood; visual rating after 13 to 15 days; scale 0 to 100, 0 is no effect, 100 is complete control.
Assay type: in vivo
In short: as §1

Structure (SMILES) | Plant response rating, Rice
FC(F)(F)CCCOc1c(Br)cccc1Oc1ncc(Cl)cn1 [Compound 31] | 25

These compounds were tested on kochia (Kochia scoparia) (assay: Test A postemergence, kochia). Conditions: 31 g ai/ha, postemergence; 0 to 100 scale, 0 is no effect, 100 is complete control; approximately 10 days.
Assay type: in vivo
In short: as §2

Structure (SMILES) | Plant response rating, Kochia
FC(F)(F)CCCOc1c(Br)cccc1Oc1ncc(Cl)cn1 [Compound 31] | 90

Same assay, conditions: 125 g ai/ha, postemergence; 0 to 100 scale, 0 is no effect, 100 is complete control; approximately 10 days

Structure (SMILES) | Plant response rating, Kochia
FC(F)(F)CCCOc1c(Br)cccc1Oc1ncc(Cl)cn1 [Compound 31] | 100

These compounds were tested on foxtail, giant (giant foxtail, Setaria faberii) (assay: Test A preemergence, giant foxtail). Conditions: Preemergence, 31 g ai/ha; 0 to 100 scale (0 no effect, 100 complete control).
Assay type: in vivo
In short: as §2

Structure (SMILES) | Plant response rating, Foxtail, Giant
FC(F)(F)CCCOc1c(Br)cccc1Oc1ncc(Cl)cn1 [Compound 31] | 40

Same assay, conditions: Preemergence, 125 g ai/ha; 0 to 100 scale (0 no effect, 100 complete control)

Structure (SMILES) | Plant response rating, Foxtail, Giant
FC(F)(F)CCCOc1c(Br)cccc1Oc1ncc(Cl)cn1 [Compound 31] | 100

These compounds were tested on pigweed (Amaranthus retroflexus) (assay: Test A preemergence, pigweed). Conditions: Preemergence, 31 g ai/ha; 0 to 100 scale (0 no effect, 100 complete control).
Assay type: in vivo
In short: as §2

Structure (SMILES) | Plant response rating, Pigweed
FC(F)(F)CCCOc1c(Br)cccc1Oc1ncc(Cl)cn1 [Compound 31] | 70

Same assay, conditions: Preemergence, 125 g ai/ha; 0 to 100 scale (0 no effect, 100 complete control)

Structure (SMILES) | Plant response rating, Pigweed
FC(F)(F)CCCOc1c(Br)cccc1Oc1ncc(Cl)cn1 [Compound 31] | 100

What follows are compounds tested on barnyardgrass (Echinochloa crus-galli) (assay: Test A postemergence, barnyardgrass). Conditions: 31 g ai/ha, postemergence; 0 to 100 scale, 0 is no effect, 100 is complete control; approximately 10 days.
Assay type: in vivo
In short: as §2

Structure (SMILES) | Plant response rating, Barnyardgrass
FC(F)(F)CCCOc1c(Br)cccc1Oc1ncc(Cl)cn1 [Compound 31] | 20

Same assay, conditions: 125 g ai/ha, postemergence; 0 to 100 scale, 0 is no effect, 100 is complete control; approximately 10 days

Structure (SMILES) | Plant response rating, Barnyardgrass
FC(F)(F)CCCOc1c(Br)cccc1Oc1ncc(Cl)cn1 [Compound 31] | 70

These compounds were tested on wheat (Triticum aestivum) (assay: Test A postemergence, wheat). Conditions: 31 g ai/ha, postemergence; 0 to 100 scale, 0 is no effect, 100 is complete control; approximately 10 days.
Assay type: in vivo
In short: as §2

Structure (SMILES) | Plant response rating, Wheat
FC(F)(F)CCCOc1c(Br)cccc1Oc1ncc(Cl)cn1 [Compound 31] | 0

Same assay, conditions: 125 g ai/ha, postemergence; 0 to 100 scale, 0 is no effect, 100 is complete control; approximately 10 days

Structure (SMILES) | Plant response rating, Wheat
FC(F)(F)CCCOc1c(Br)cccc1Oc1ncc(Cl)cn1 [Compound 31] | 10
